Measurements from US8592451B2, “Reversible nondepolarizing neuromuscular blockade agents and methods for their use” (Cornell University, priority 2009, dated 2013).

Experiments:
[1] = system: twitch of the extensor digitorum; assay: Neuromuscular blocking potency and duration in anesthetized rhesus monkeys; assay type: in vivo, rhesus monkeys (Macaca mulatta)
Experimental: Experiments were approved by the Institutional Animal Care and Use Committee of Weill Medical College of Cornell University (New York, N.Y.) and of Albany Medical College (Albany, N.Y.), where the studies were conducted. A colony of 10 adult male monkeys (Macaca mulatta) weighing 8-18 kg was studied at ˜6 week intervals. Animals were housed and cared for in accordance with the Guide for Care and Use of Laboratory Animals (National Research Council, Washington, D.C.). They were fed a standard Old World monkey diet, enriched with fruits and vegetables, and other dietary novelties and were followed throughout the study to verify normal health by physical examination, body weight, and clinical laboratory studies (Complete Blood Count, Blood Urea Nitrogen and creatinine, and liver function tests).
On the day of each study, monkeys received ketamine (7-10 mg/kg i.m.) followed by tracheal intubation under topical anesthesia with 4% lidocaine. Ventilation was controlled at 10 mL/kg and 20 breaths/min with isoflurane (1.0-2.0%) and N2O/O2 (2:1 mixture). Ringers lactate was administered at ˜10 ml kg^−1 h^−1. Arterial pressure was monitored from a femoral, superficial tibial, or radial (22 gauge) cannula. Heart rate was measured by tachograph from the arterial pulse wave. Core temperature was kept at 36.5-38.0° C. by warming blankets. Electrocardiogram and pulse oximetry were monitored continuously.
Needle electrodes (25 gauge) transmitting square-wave pulses of 0.2 msec duration at supramaximal voltage which were generated by a Grass S-88 stimulator (Grass Instruments, Quincy, Mass.) were placed at the peroneal nerve at the knee to elicit twitch responses of the extensor digitorum of the foot at 0.15 Hz. A small slip (10-20%) of the tendon was dissected free under sterile technique and tied to a Grass FT 10 force transducer (Grass Instruments, Quincy, Mass.) at a baseline tension of 50 gm. Train-of four stimulation (TOF, 2 Hz for 2 sec) was interposed at appropriate points, especially 1-2 min prior to NMBA dosing and following recovery of twitch to 95% of baseline, where TOF was subsequently evaluated every 1-2 min.
Recordings of circulatory and neuromuscular data were made on a Grass 7B polygraph (Grass Instruments). A baseline period of 15-20 min was allowed for stabilization of recordings prior to dosing.^2
Dose-response curves for twitch blockade by gantacurium, CW 002, CW 011, cisatracurium, CW002-Cys, NB 938-69, NB 1064-81, NB 802-17 (CW 001), NB 832-65, and NB 1163-79, structures of which are all shown above, were generated as follows. […] Successive doses were separated by at least three estimated half lives beyond complete recovery of the previous dose to TOF of 110-120%, which is normal for these monkeys. Only the first one or two doses yielding 5 to 99% blockade were included from any single experiment for computation of dose-response data.
Comparative studies of spontaneous recovery versus antagonism/reversal were done at least 3 estimated half-lives following dose-response studies.
ED 50 and ED 95 were computed from the regression of log dose vs. the logit of percentage blockade of twitch.
CW002-Cys, the L-cysteine adduct of CW 002, was available in limited quantity and was administered in cumulative fashion to three animals to compare approximate potency and duration of effect versus its parent compound CW 002.

[2] = L-cysteine adduction kinetics in vitro (HPLC); assay type: physicochemical; settings: pH 7.4, 37° C.; for NMBA peak area / [NMBA] remaining / ln* = ln (([NMBA]t[L-cysteine]t=0)/([NMBA]t=0[L-cysteine]t)): gantacurium 200 μg/mL + L-cysteine
Experimental: In a second experiment, to evaluate degradation in the presence of L-cysteine, buffered solutions (pH 7.4) of gantacurium, CW 002 or CW 011 were freshly prepared at 37° C. to give experimental concentrations of 1000 μg/mL (CW 002 and CW 011) and 200 μg/mL (gantacurium), after addition to and mixing with a 5% Molar excess of L-cysteine at time=0.
The concentration of neuromuscular blocking agent/parent compound remaining at specified time points after mixing was determined by high performance liquid chromatography. The concentration of blocking agent at each time point was determined from a separately prepared reaction mixture, due to the rapid rate of L-cysteine adduction. The reaction rate constant for the second order reaction of each neuromuscular blockade agent (NMBA) with L-cysteine was derived by plotting the natural log of ([NMBA]t[L-cysteine]t=0/[NMBA]t=0[L-cysteine]t) vs. time.
Concentrations selected were 200, 100 and 50 μg/ml which are approximately proportional to the relative potencies (ED 95) of gantacurium, CW 002 and CW 011 respectively. A degradation (adduction) pathway in the presence of L-cysteine for each of the three compounds was proposed.
The reaction of L-cysteine with CW 002, CW 011 or gantacurium is first order in the case of both the neuromuscular blockade agent (NMBA) and L-cysteine, represented by the rate equation (1). d[Adduct]/dt=−d[NMBA]/dt=ka[NMBA][L-cysteine] (1)
Calculation of the L-cysteine adduction half time requires experimental derivation of the reaction rate constant, ka, for each compound. The initial concentrations of NMBA and L-cysteine are unequal in the experiments conducted for this study, thus integration of equation 1 gives equation 2, where [NMBA]0 is the NMBA concentration at time equals 0 and [NMBA]t is the NMBA concentration at a time point, t.
[formula] A plot of the ln(([NMBA]t [L-cysteine]0)/([NMBA]0 [L-cysteine]t)) versus time (ln* vs. t) gives a line, with slope equal to ka([NMBA]0−[L-cysteine]0). An adduction reaction half time can be calculated by solving for ka to be used in equation 3.
NMBA standard solutions were prepared by a method similar to that used to prepare hydrolysis standards. The standards were prepared at 1000 μg/mL for CW 002 and CW 011 and 200 μg/mL for gantacurium.
Solutions used for determination of NMBA concentration at the reported times for CW 002 and CW 011 were prepared as follows: L-cysteine hydrochloride monohydrate was charged to a volumetric flask in de-ionized water. A 5 mL aliquot of the L-cysteine solution (1.05 equiv. L-cysteine with respect to NMBA) was transferred by volumetric pipette to a flask held at 37.0±0.3° C. CW 002 or CW 011 was then charged to a separate 25 mL volumetric flask and diluted to volume with pH 7.4 phosphate buffer at 37.0° C. The NMBA solution was then immediately transferred to the flask containing L-cysteine to give an initial NMBA concentration of 1000 μg/mL. Solutions used for determination of gantacurium concentration versus time were prepared in a similar manner to give an initial concentration of 200 μg/mL. T=0 was defined as the time of addition of NMBA solution to L-cysteine solution. The times listed in the results table show the point of HPLC sample injection following mixing of L-cysteine and NMBA at time=0 (Table 1, below).
Rate constants were calculated using equation (3) and the slope of the trend line derived from each data set. The strong linear correlation of the data within each set supports the use of second order kinetics for analysis of the cysteine adduction reactions.
Reaction half times were calculated using equation 4 and the experimentally determined rate constants. The initial NMBA concentrations were chosen to reflect the relative potency observed in vivo.

[3] = system: twitch of the extensor digitorum; assay: Reversal of neuromuscular blockade by L-cysteine or neostigmine in anesthetized rhesus monkeys; assay type: in vivo, rhesus monkeys (Macaca mulatta)
Experimental: A control dose of 0.15 mg/kg CW 002 was allowed to recover spontaneously to TOF 110-120%. A second dose was given 60 minutes later, followed one minute afterwards by either neostigmine (0.05 mg/kg+atropine 0.05 mg/kg) or L-cysteine (10, 20, 30 or 50 mg/kg). Total duration and 5-95% recovery intervals were compared during spontaneous recovery vs. antagonism by L-cysteine or reversal by neostigmine.
This series of paired comparisons was designed to generate dose-response data comparing spontaneous recovery of high doses of CW 011 (from 4 to 64× ED95) versus immediate antagonism at +1 min by an optimal dose of L-cysteine (50 mg/kg), previously determined during studies of immediate antagonism of CW 002. This experiment was done to explore the limits of chemical antagonism by L-cysteine of these olefinic diester neuromuscular blocking drugs, using CW 011 as a typical example with an intermediate duration of action. Five groups of animals first received a control dose of CW 011 at 4, 8, 16, 32 or 64× ED 95 (0.1 to 1.6 mg/kg). Sixty minutes after spontaneous recovery of the control dose to TOF 110-120%, the same dose was repeated, followed 1 min later by L-cysteine (50 mg/kg). Total duration of action and 5-95% recovery interval were compared during spontaneous recovery and following antagonism by L-cysteine
The reversal of neuromuscular blockade by cysteine (5-50 mg/kg i.v.) was studied. Reversal was tested as follows: full paralysis was induced by injection of a dose of approximately 2-6× ED 95 of the compound in question. After spontaneous recovery of this dose, a second identical dose was given 15-30 min later. Cysteine was then given at +1 min after injection of the neuromuscular blocking drug at a point where no twitch was apparent (“immediate reversal”) or at the beginning of recovery from neuromuscular blockade at two percent twitch height (“classical reversal”). Comparisons were made among compounds with respect to rapidity and ease of cysteine reversal, by comparing 5-95% recovery times, and total durations of action (injection to 95% twitch recovery). Spontaneous recovery was compared with cysteine-accelerated recovery. […]

Row | SMILES | Duration (± SD/SEM), from injection to recovery of twitch to 95% of baseline ([1]; administered dose 0.04 mg/kg, spontaneous recovery) | ED 95 (± SD/SEM) ([1]; twitch blockade, monkeys under isoflurane, twitch at 0.15 Hz, calculated from dose-response curve) | Plot Slope (ln* vs. time) ([2]; L-cysteine adduction, data of Table 1) | NMBA peak area ([2]; Trial 1, 59 Sec) | [NMBA] remaining ([2]; Trial 1, 59 Sec) | ln* = ln (([NMBA]t[L-cysteine]t=0)/([NMBA]t=0[L-cysteine]t)) ([2]; Trial 1, 59 Sec) | NMBA peak area ([2]; Trial 2, 67 Sec) | [NMBA] remaining ([2]; Trial 2, 67 Sec) | ln* = ln (([NMBA]t[L-cysteine]t=0)/([NMBA]t=0[L-cysteine]t)) ([2]; Trial 2, 67 Sec) | NMBA peak area ([2]; Trial 3, 70 Sec) | [NMBA] remaining ([2]; Trial 3, 70 Sec) | ln* = ln (([NMBA]t[L-cysteine]t=0)/([NMBA]t=0[L-cysteine]t)) ([2]; Trial 3, 70 Sec) | NMBA peak area ([2]; Trial 4, 78 Sec) | [NMBA] remaining ([2]; Trial 4, 78 Sec) | ln* = ln (([NMBA]t[L-cysteine]t=0)/([NMBA]t=0[L-cysteine]t)) ([2]; Trial 4, 78 Sec) | ka, second order rate constant of L-cysteine adduction [2] | half-life at 200 μg/ml ([2]; pH 7.4 buffered solution with L-cysteine, calculated at [NMBA]0 0.000188 M (200 μg/ml), read-out: L-cysteine adduction reaction half time t1/2) | effect of neostigmine given immediately after the blocking drug ([3]; immediate reversal) | classical antagonism of neuromuscular blockade by neostigmine ([3]; neostigmine given at beginning of spontaneous recovery, e.g. at 2% twitch height)
1 | COc1ccc(C[C@@H]2c3cc(OC)c(OC)cc3CC[N@@+]2(C)CCCOC(=O)CCC(=O)OCCC[N@+]2(C)CCc3cc(OC)c(OC)cc3[C@H]2Cc2ccc(OC)c(OC)c2)cc1OC [NB 1163-79] | 27.2 ± 2.6 min | 0.032 ± 0.003 mg/kg | – | – | – | – | – | – | – | – | – | – | – | – | – | – | – | – | –
2 | COc1cc2c(cc1OC)[C@H](c1cc(OC)c(OC)c(OC)c1)[N@@+](C)(CCCOC(=O)/C=C(\Cl)C(=O)OCCC[N@+]1(C)CCc3cc(OC)c(OC)cc3[C@H]1Cc1cc(OC)c(OC)c(OC)c1)CC2 [Gantacurium, reference compound] | – | – | −0.0145 | 476.7 mAU's | 33 µM | −0.46 | 384.2 mAU's | 27 µM | −0.56 | 344.2 mAU's | 24 µM | −0.62 | 281.5 mAU's | 20 µM | −0.73 | 529.6 M⁻¹ s⁻¹ | 12 s | ineffective | showed antagonism
